Measurements as given in PubChem BioAssay (NCI).
Several values for one entry are separate records, joined by “and”; a condition that tells them apart may be missing. Identical values can stand only once.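 Protocol summary: plate cells (96-well), add compound at 5 concentrations, incubate 48 h, interpolate endpoints linearly. GI50: concentration for 50% inhibition of growth. TGI: concentration producing complete growth inhibition.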

How the values were obtained:
Assay in all cases: NCI tumour cell line growth inhibition, 48 h
HOP-62 NSCLC = system: HOP-62 NSCLC
MALME-3M melanoma = system: MALME-3M melanoma
CCRF-CEM leukemia = system: CCRF-CEM leukemia
SN12C renal = system: SN12C renal
COLO 205 colon = system: COLO 205 colon
EKVX NSCLC = system: EKVX NSCLC
786-0 renal = system: 786-0 renal
OVCAR-5 ovarian = system: OVCAR-5 ovarian
A549 NSCLC = system: A549 NSCLC
MCF7 breast = system: MCF7 breast

SMILES	GI50 (HOP-62 NSCLC) [µM]	TGI (HOP-62 NSCLC)	GI50 (MALME-3M melanoma) [µM]	TGI (MALME-3M melanoma)	GI50 (CCRF-CEM leukemia) [µM]	TGI (CCRF-CEM leukemia) [µM]	GI50 (SN12C renal)	TGI (SN12C renal)	GI50 (COLO 205 colon)	TGI (COLO 205 colon) [µM]	GI50 (EKVX NSCLC) [µM]	TGI (EKVX NSCLC)	GI50 (786-0 renal)	TGI (786-0 renal)	GI50 (OVCAR-5 ovarian) [µM]	TGI (OVCAR-5 ovarian)	GI50 (A549 NSCLC) [µM]	TGI (A549 NSCLC) [µM]	GI50 (MCF7 breast)	TGI (MCF7 breast)
Cc1cn2c(=O)n(c1=O)Cc1ccccc1C2	> 100	> 100 µM	> 100	> 100 µM	50.6	> 100	> 100 µM	> 100 µM	1.04 µM	31.9	> 100	> 100 µM	68.7 µM	> 100 µM	> 100	> 100 µM	> 100	> 100	35.1 µM	> 100 µM
Cc1cc(NC(=O)NC(=O)c2ccccc2NC(=O)CN)ccc1Oc1ncc(Br)cn1	0.47	4.18 µM and 22.3 µM	< 0.01	75 µM and 89.6 µM	0.0476	–	0.508 µM	38 µM and 49.1 µM	–	2.24	–	39.1 µM and 49.2 µM	0.4 µM	24.2 µM and 17.8 µM	0.541	43.6 µM and 75.2 µM	–	35.8	0.174 µM	23.3 µM and > 100 µM
CC1(C)N[P+]2(Nc3ccccc3O2)OC1=O (centres undefined)	–	> 100 µM	–	> 100 µM	–	> 100	–	> 100 µM	–	49.9	–	> 100 µM	–	> 100 µM	–	> 100 µM	–	> 100	–	> 100 µM
COc1ccc(-c2ccccc2)cc1-c1c(Nc2cc(Cl)cc(Cl)c2O)c(=O)c1=O	1.56	> 50 µM	1.19	3.5 µM	1.64	> 50	1.48 µM	> 50 µM	1.9 µM	44.8	1.51	> 50 µM	1.84 µM	> 50 µM	1.77	> 50 µM	1.65	> 50	1.3 µM	> 50 µM
NC1=C(Cl)C(=O)c2ccccc2C1=O	–	32 µM	–	3.13 µM	–	32.5	–	15.9 µM	–	30.8	–	28.4 µM	–	20.2 µM	–	23.7 µM	–	8.44	–	5.25 µM
Cc1cc(C)c2c(N)c3cccc(C)c3nc2n1	1.81	5.03 µM	1.93	4.38 µM	3.84	17	1.61 µM	11.2 µM	0.702 µM	2.17	3.17	33.5 µM	2.35 µM	8.47 µM	2.1	5.71 µM	–	–	2.14 µM	10.3 µM
Cc1cc2nc3c4cccc(O)c4n(CCN(C)C)c3nc2cc1C	1.88	7.53 µM	1.64	3.42 µM	1.57	6.25	2.28 µM	13.8 µM	3.89 µM	19.4	2.89	17.7 µM	3.88 µM	21.1 µM	2.97	9.1 µM	1.41	12.5	1.36 µM	5.08 µM
CNCCOC(=O)/C=C1/CCC2C(C(O)CC3C(C)(C(=O)OC)CCCC23C)C1C (centres undefined)	0.013	0.0259 µM	0.0253	0.0599 µM	0.0138	0.0518	< 0.01 µM	0.112 µM	0.0348 µM	0.0958	< 0.0136	0.0331 µM	0.0166 µM	0.0341 µM	0.0264	0.0693 µM	< 0.01	0.0116	0.0213 µM	0.071 µM
CCCCCCCCCCCCCCCCn1cc[n+](Cc2ccccc2)c1C	–	–	0.809	2.61 µM	0.401	2.48	1.07 µM and 0.156 µM	2.34 µM and 1.17 µM	–	–	0.703	2.28 µM	0.541 µM and 0.21 µM	1.87 µM and 0.621 µM	1.48	3.25 µM	1.15	2.57	1.12 µM and 0.289 µM	2.39 µM and 0.968 µM
Cc1ccc(/C(=C/C=C(C#N)C#N)Sc2ccccn2)cc1	6.5	18 µM	4.09	17.3 µM	0.168	0.575	1.91 µM	4.72 µM	1.72 µM	3.79	14.6	31.1 µM	2.15 µM	5.64 µM	4.13	13.9 µM	12.3	31.8	4.62 µM	36 µM
CC1(C)Cc2c(Br)c(Br)c(Br)c(OCC(O)CN3CCOCC3)c2O1 (centres undefined)	12.2	27.3 µM	15	32.7 µM	10.2	24.1	17.4 µM	33.5 µM	13.4 µM	27	7.72	20.5 µM	13 µM	28.6 µM	14.8	28.8 µM	12.9	28.4	13.4 µM	29 µM
O=C(CCCn1ccnc1[N+](=O)[O-])NCCn1ccnc1[N+](=O)[O-]	–	> 100 µM	–	> 100 µM	–	> 100	–	> 100 µM	–	> 100	–	> 100 µM	–	> 100 µM	–	> 100 µM	–	> 100	–	> 100 µM
COc1ccc(C(=O)CC(c2ccc(OC)c(OC)c2)c2c(O)c3ccccc3oc2=O)cc1OC (centres undefined)	–	> 100 µM	–	> 100 µM	–	> 100	–	> 100 µM	–	> 100	–	> 100 µM	–	> 100 µM	–	> 100 µM	–	> 100	–	> 100 µM
COc1cc(-c2n/c(=C\c3c(O)[nH]c4ccccc34)cc3c2=Nc2ccccc2-3)cc(OC)c1OC	0.536	> 100 µM	0.448	> 100 µM	1.12	> 100	0.523 µM	> 100 µM	1.55 µM	6.7	> 24.9	> 100 µM	0.864 µM	31.7 µM	4.32	> 100 µM	0.675	> 100	0.363 µM	> 23.2 µM
O=C1C=CC(=O)c2c1ncc1c2nc2sccn21	21.2	47.4 µM	12.7	26.5 µM	2.07	6.62	23.3 µM	48.3 µM	40.3 µM	> 100	20.2	44.7 µM	15.5 µM	36.3 µM	19.8	40.1 µM	52.4	> 100	20.6 µM	> 100 µM
CCOC(=O)/C(=C\c1ccc(F)cc1)C(C)=O	–	> 100 µM	–	43.1 µM	–	> 100	–	> 100 µM	–	> 100	–	83.6 µM	–	49.4 µM	–	> 100 µM	–	> 100	–	96.6 µM
COc1ccc(-c2nc3sc4c(c3c(=O)[nH]2)CCCC4)c2ccccc12	0.629	–	0.749	9.03 µM	–	> 100	0.514 µM and 0.0702 µM	> 100 µM	–	–	1.8	–	–	3.8 µM	0.301	4.59 µM	0.42	–	–	> 100 µM
O=[N+]([O-])/C=C/c1ccc([N+](=O)[O-])cc1	10.9	23.7 µM	4.23	15.1 µM	3.63	84.4	2.37 µM	6.83 µM	1.97 µM	4.22	14.1	31.8 µM	2.02 µM	3.64 µM	4.47	15.5 µM	3.15	13.1	1.84 µM	5.29 µM
O=C(/C=C\c1ccc2ccccc2n1)c1cc(Cl)ccc1O	6.54	20.7 µM	8.64	25.8 µM	2.16	8.29	9.58 µM	24.4 µM	5.74 µM	18.4	13.7	87.5 µM	4.28 µM	14.6 µM	14.3	30.5 µM	57.9	> 100	6.48 µM	> 100 µM
N=C(N)c1ccc(-c2ccc(-c3ccc(F)cc3)o2)o1	1.6	3.25 µM	1.63	3.26 µM	1.84	5.57	1.8 µM	3.65 µM	1.6 µM	3.15	1.35	3.18 µM	1.66 µM	3.49 µM	1.66	3.4 µM	1.65	3.3	0.685 µM	2.38 µM
COC(=O)[C@]12CC=C3O[C@@H]4OC5(CCCCC5)O[C@@H]4[C@H]3C1C(=O)C=CC2=O (some centres undefined)	–	37.9 µM	–	34.2 µM	–	14.3	–	35.1 µM	–	30.4	–	52.1 µM	–	30.8 µM	–	38.8 µM	–	55	–	35.5 µM
O=C1OCC2=C1C(c1cccc(C(F)(F)F)c1)c1cc3c(cc1N2CCO)CCC3 (centres undefined)	0.178	7.74 µM	0.714	10.5 µM	0.217	45.4	0.309 µM	7.76 µM	0.163 µM	1.59	0.278	9.52 µM	0.289 µM	8.13 µM	0.265	8.97 µM	0.201	8.04	0.17 µM	7.65 µM
Cc1ccc2[nH]c(C(=O)NN3C(=O)C(C)SC34CCCCC4C)c(-c3ccccc3)c2c1 (centres undefined)	20.2	37.7 µM	20.4	38.1 µM	21.7	73	15.7 µM	31.6 µM	18 µM	38.9	24.5	61.9 µM	22.2 µM	50.9 µM	20.3	40.3 µM	15.9	32.9	23.1 µM	> 100 µM
CN1CCC(n2[nH]c(-c3ccccc3)c(Cc3ccccc3)c2=O)CC1	–	> 100 µM	–	> 100 µM	–	> 100	–	> 100 µM	–	> 100	–	> 100 µM	–	> 100 µM	–	> 100 µM	–	> 100	–	> 100 µM
COc1cc2c3c(n(C)c(=O)c2cc1OC)-c1cc2c(cc1/C3=C/[C@H](N)CCCCN)OCO2	1.34	11.6 µM	0.0491	0.7 µM	0.0526	> 100	0.662 µM	6.39 µM	1.18 µM	> 19.8	5.93	> 24.8 µM	1.68 µM	18 µM	0.885	5.65 µM	0.622	24.5	0.537 µM	3.93 µM
Cc1ccccc1C(C(=O)NC1CCCCC1)N(C(=O)Cn1ccnc1C)c1cccc(F)c1 (centres undefined)	> 60.4	> 100 µM	> 52.8	> 100 µM	> 100	> 100	> 53.4 µM	> 100 µM	> 92.1 µM	> 100	> 100	> 100 µM	37.2 µM	> 100 µM	> 100	> 100 µM	> 100	> 100	> 74 µM	> 100 µM
CCN1CCC(CC(=O)Nc2n[nH]c3nc(-c4cccs4)c(Br)cc23)CC1	10.6	> 25 µM	6.42	13.4 µM	9.57	> 25	9.51 µM	> 25 µM	3.91 µM	8.16	> 25	> 25 µM	10.7 µM	> 25 µM	15.9	> 25 µM	8.82	> 25	6.29 µM	18.5 µM
CC(=O)OC12CC(C)C3(O)C4C=C(C)C(=O)[C@@]4(O)CC(CO)=C[C@H]3C1C2(C)C (some centres undefined)	–	–	> 1000	> 1000 µM	–	> 1000	–	–	0.522 µM and 0.903 µM	–	> 1000	> 1000 µM	> 1000 µM	> 1000 µM	> 1000	> 1000 µM	–	–	> 1000 µM	> 1000 µM
